Data on 2 substances can be found in patent publication US20250066445A1, “OBESITY TREATMENT AND PREVENTION METHODS” (VAULT BIOSCIENCES, INC., priority 2022, published 2025).

Holding throughout (format): in vivo, human
Assay [1] in a line: Example 13 clinical study combining dulaglutide and fasting. The following applies: One-Meal-A-Day, dose weeks 1-4: 0.2/0.375/0.375/0.6 mg. An excerpt: Example 13—Clinical Study of Combining Dulaglutide and Fasting Patients are subject to a combination HMT/HNT treatment protocol as described in Table 17 below. […] [table]
A short description of assay [2]: Example 15 clinical study combining dulaglutide and fasting. The following applies: 18-hour fasting, dose weeks 1-4: 0.2/0.375/0.375/0.6 mg. An excerpt:
Example 15—Clinical Study of Combining Dulaglutide and Fasting Patients are subject to a combination HMT/HNT treatment protocol as described in Table 19 below. […] [table]

Assay [3] in a line: Example 14 clinical study combining dulaglutide and fasting. To be noted: 15-hour fasting, dose weeks 1-4: 0.2/0.375/0.375/0.6 mg. An excerpt:
Example 14—Clinical Study of Combining Dulaglutide and Fasting Patients are subject to a combination HMT/HNT treatment protocol as described in Table 18 below. […] [table]

Assay [4] can be described thus: Example 2 clinical study combining semaglutide (injection) and fasting. To be noted: 15-hour fasting, dose weeks 1-4: .25/.50/.50/1 mg. An excerpt:
Example 2—Clinical Study of Combining Semaglutide (injection) and Fasting Patients are subject to a combination HMT/HNT treatment protocol as described in Table 6 below. […] [table]

Assay [5] is described as follows: Example 1 clinical study combining semaglutide (injection) and fasting, Patient 1. The following applies: One-Meal-A-Day. An excerpt: Example 1—Clinical Study of Combining Semaglutide (Injection) and Fasting
Patient 1 was subject to a combination HMT/HNT treatment protocol as described below.

Setting [6] is: no exercise, no calorie counting.
The mark [7] stands for this setting: starting weight 282 lbs, 30 days, dose weeks 1-4: .25/.50/.50/1 mg, no exercise, no calorie counting.

For Dulaglutide, the Hunger entry in assay [1], in assay [2] and in assay [3] was “no discernable or unusual hunger” in each case. In addition, the “Therapeutic effects (e.g. weight loss)” value in assay [1] (setting [6]), in assay [2] (setting [6]) and in assay [3] (setting [6]) was “Desirable therapeutics effects (e.g. weigh loss) are achieved” in each case.

With Semaglutide, the Hunger entry in assay [4] was “no discernable or unusual hunger”; in assay [5] (30 days, dose weeks 1-4: .25/.50/.50/1 mg), “No discernable/unusual hunger”; in assay [5] (30 days, dose weeks 1-4: .25/.50/.50/1 mg, listed as Semaglutide (Injection)) it was “no discernable or unusual hunger”. Further, in assay [4] (setting [6]), the “Therapeutic effects (e.g. weight loss)” value was “Desirable therapeutics effects (e.g. weigh loss) are achieved”. For the same substance, the Weight lost in assay [5] (in 30 days, no exercise, no caloric restrictions) turned out to be 30 pounds. Also, the “% Bodyweight Reduction” value was −9.6% in assay [5] (starting weight 282 lbs, 30 days, dose weeks 1-4: .25/.50/.50/1 mg) and “approximately 9.6%” in assay [5] (starting weight 282 lbs, 30 days, dose weeks 1-4: .25/.50/.50/1 mg, listed as Semaglutide (Injection)). For the same substance, the Bodyweight reduction in assay [5] (setting [7]) was −30 lbs. In assay [5] (setting [7]), the “Ending Weight” value was determined as 252 lbs.
